pIC50: −log10 of the molar value.
Columns and labels:
[1] = test system: bicistronic HCV replicon (replicon RNA, GenBank Accession No. AJ242654); test: HCV Replicon Assay; assay type: cell-based; settings: Hepatitis C virus, 72 h, read-out: Replicon IC50

Row | Structure (SMILES) | pIC50 [1] | melting point
1 | Cc1ccc2c(C#N)c(-c3ccc(S(=O)(=O)N[C@@H](C)C(F)(F)F)cn3)n(C3CCC3)c2c1 [compound 351, 6-(3-cyano-1-cyclobutyl-6-methyl-1H-indol-2-yl)-N-[(2S)-1,1,1-trifluoropropan-2-yl]pyridine-3-sulfonamide] | > 6.30 | 203 to 208 °C
2 | Cc1cc2c(cc1F)c(C(N)=O)c(-c1ccc(S(=O)(=O)N[C@@H](C)C(F)(F)F)cn1)n2-c1cccnc1 [compound 913, 5-fluoro-6-methyl-1-(pyridin-3-yl)-2-(5-{[(2S)-1,1,1-trifluoropropan-2-yl]sulfamoyl}pyridin-2-yl)-1H-indole-3-carboxamide] | > 6.30 | 223 to 227 °C
3 | N#Cc1c(-c2ccc(S(=O)(=O)NC(CF)CF)cn2)n(-c2ccccc2)c2cc(C3CC3)ccc12 [compound 95, 6-(3-cyano-6-cyclopropyl-1-phenyl-1H-indol-2-yl)-N-(1,3-difluoropropan-2-yl)pyridine-3-sulfonamide] | > 6.30 | 171 to 175 °C
4 | Cc1cc2c(cc1F)c(C(N)=O)c(-c1ccc(S(=O)(=O)N[C@@H](C)C(F)(F)F)cn1)n2C1CCCC1 [compound 700, 1-cyclopentyl-5-fluoro-6-methyl-2-(5-{[(2S)-1,1,1-trifluoropropan-2-yl]sulfamoyl}pyridin-2-yl)-1H-indole-3-carboxamide] | > 6.30 | 244 to 246 °C
5 | CCc1cc(F)c2c(C(N)=O)c(-c3ccc(NS(=O)(=O)C(C)(C)C)nc3)n(-c3ccc(F)cc3)c2c1 [compound 1106, 2-{6-[(tert-butylsulfonyl)amino]pyridin-3-yl}-6-ethyl-4-fluoro-1-(4-fluorophenyl)-1H-indole-3-carboxamide] | > 6.30 | 280 to 288 °C
6 | N#Cc1c(-c2ncc(S(=O)(=O)NC(CF)CF)cn2)n(C2CCC2)c2cc(CF)ccc12 [compound 361, 2-[3-cyano-1-cyclobutyl-6-(fluoromethyl)-1H-indol-2-yl]-N-(1,3-difluoropropan-2-yl)pyrimidine-5-sulfonamide] | > 6.30 | 226 to 232 °C
7 | CC(C)(C)NS(=O)(=O)c1ccc(-c2c(C(N)=O)c3cc(F)c(OC(F)F)cc3n2C2CCC2)nc1 [compound 723, 2-[5-(tert-butylsulfamoyl)pyridin-2-yl]-1-cyclobutyl-6-(difluoromethoxy)-5-fluoro-1H-indole-3-carboxamide] | > 6.30 | 158 to 160 °C
8 | N#Cc1c(-c2ccc(S(=O)(=O)NC(CF)CF)cn2)n(-c2ccccc2)c2ccc(F)cc12 [compound 113, 6-(3-cyano-5-fluoro-1-phenyl-1H-indol-2-yl)-N-(1,3-difluoropropan-2-yl)pyridine-3-sulfonamide] | > 6.30 | 165 to 168 °C
9 | Cc1ccc2c(c1)c(C#N)c(-c1ncc(S(=O)(=O)N[C@@H](C)C3CC3)cn1)n2CC1CC1 [compound 561, 2-[3-cyano-1-(cyclopropylmethyl)-5-methyl-1H-indol-2-yl]-N-[(1S)-1-cyclopropylethyl]pyrimidine-5-sulfonamide] | 5.70 to 6.30 | 174 to 178 °C
10 | Cc1c(F)cc2c(C#N)c(-c3ccc(S(=O)(=O)N[C@@H](C)C(F)(F)F)cn3)n(C3CCC3)c2c1F [compound 532, 6-(3-cyano-1-cyclobutyl-5,7-difluoro-6-methyl-1H-indol-2-yl)-N-[(2S)-1,1,1-trifluoropropan-2-yl]pyridine-3-sulfonamide] | > 6.30 | 186 to 191 °C
11 | CC(C)(C)S(=O)(=O)Nc1ccc(-c2c(C#N)c3ccc(Oc4ncccn4)cc3n2C2CCC2)cn1 [compound 268, N-{5-[3-cyano-1-cyclobutyl-6-(pyrimidin-2-yloxy)-1H-indol-2-yl]pyridin-2-yl}-2-methylpropane-2-sulfonamide] | > 6.30 | 275 to 277 °C
12 | CC(C)NS(=O)(=O)c1cnc(-c2c(C#N)c3ccc(F)cc3n2C2CCCCC2)nc1 [compound 251, 2-(3-cyano-1-cyclohexyl-6-fluoro-1H-indol-2-yl)-N-(propan-2-yl)pyrimidine-5-sulfonamide] | 5.70 to 6.30 | 200 to 202 °C
13 | Cc1cc2c(cc1F)c(C(=O)O)c(-c1ccc(S(=O)(=O)N[C@@H](C)C(F)(F)F)cn1)n2C1CCC1 [compound 793, 1-cyclobutyl-5-fluoro-6-methyl-2-(5-{[(2S)-1,1,1-trifluoropropan-2-yl]sulfamoyl}pyridin-2-yl)-1H-indole-3-carboxylic acid] | > 6.30 | 234 to 240 °C
14 | N#Cc1c(-c2ncc(S(=O)(=O)NC(CF)CF)cn2)n(CC2CC2)c2ccc(Cl)cc12 [compound 221, 2-[5-chloro-3-cyano-1-(cyclopropylmethyl)-1H-indol-2-yl]-N-(1,3-difluoropropan-2-yl)pyrimidine-5-sulfonamide] | > 6.30 | 245 to 250 °C
15 | Cc1ccc2c(C#N)c(-c3ccc(S(=O)(=O)NC(CF)CF)cn3)n([C@@H]3CCOC3)c2c1 [compound 54, 6-{3-cyano-6-methyl-1-[(3R)-tetrahydrofuran-3-yl]-1H-indol-2-yl}-N-(1,3-difluoropropan-2-yl)pyridine-3-sulfonamide] | > 6.30 | 152 to 153 °C
16 | CCc1cc2c(cc1F)c(C(N)=O)c(-c1cnc(NS(=O)(=O)C(C)(C)C)nc1)n2C1CCCCC1 [compound 1036, 2-{2-[(tert-butylsulfonyl)amino]pyrimidin-5-yl}-1-cyclohexyl-6-ethyl-5-fluoro-1H-indole-3-carboxamide] | 5.30 to 5.70 | > 300 °C
17 | COc1ccc2c(C#N)c(-c3ccc(S(=O)(=O)N[C@@H](C)C(F)(F)F)cn3)n(C3CCC3)c2c1 [compound 427, 6-(3-cyano-1-cyclobutyl-6-methoxy-1H-indol-2-yl)-N-[(2S)-1,1,1-trifluoropropan-2-yl]pyridine-3-sulfonamide] | > 6.30 | 206 to 212 °C
18 | C[C@H](NS(=O)(=O)c1ccc(-c2c(C#N)c3cc(Br)c(O)cc3n2C2CCC2)nc1)C(F)(F)F [compound 684, 6-(5-bromo-3-cyano-1-cyclobutyl-6-hydroxy-1H-indol-2-yl)-N-[(2S)-1,1,1-trifluoropropan-2-yl]pyridine-3-sulfonamide] | 5.70 to 6.30 | 223 to 224 °C
19 | CC(C)n1c(-c2ncc(S(=O)(=O)N[C@@H](C)C3CC3)cn2)c(C#N)c2cc(F)ccc21 [compound 529, 2-[3-cyano-5-fluoro-1-(propan-2-yl)-1H-indol-2-yl]-N-[(1S)-1-cyclopropylethyl]pyrimidine-5-sulfonamide] | > 6.30 | 176 to 179 °C
20 | C[C@H](NS(=O)(=O)c1ccc(-c2c(C#N)c3cc(C(F)F)ccc3n2C2CCCC2)nc1)C(F)(F)F [compound 537, 6-[3-cyano-1-cyclopentyl-5-(difluoromethyl)-1H-indol-2-yl]-N-[(2S)-1,1,1-trifluoropropan-2-yl]pyridine-3-sulfonamide] | > 6.30 | 187 to 188 °C
21 | Cc1cc2c(cc1F)c(C#N)c(-c1ccc(S(=O)(=O)N[C@@H](C)C(F)(F)F)cn1)n2-c1cncc(F)c1 [compound 945, 6-[3-cyano-5-fluoro-1-(5-fluoropyridin-3-yl)-6-methyl-1H-indol-2-yl]-N-[(2S)-1,1,1-trifluoropropan-2-yl]pyridine-3-sulfonamide] | > 6.30 | 199 to 204 °C
22 | CC(C)(NS(=O)(=O)c1ccc(-c2c(C#N)c3ccc(OC(F)F)cc3n2-c2ccc(F)cc2)nc1)C(F)(F)F [compound 687, 6-[3-cyano-6-(difluoromethoxy)-1-(4-fluorophenyl)-1H-indol-2-yl]-N-(1,1,1-trifluoro-2-methylpropan-2-yl)pyridine-3-sulfonamide] | > 6.30 | 215 to 216 °C
23 | CC(C)n1c(-c2ccc(S(=O)(=O)NC(CF)CF)cn2)c(C#N)c2ccc(OC(F)(F)F)cc21 [compound 69, 6-[3-cyano-1-(propan-2-yl)-6-(trifluoromethoxy)-1H-indol-2-yl]-N-(1,3-difluoropropan-2-yl)pyridine-3-sulfonamide] | > 6.30 | 116 to 117 °C
24 | CCc1cc2c(cc1F)c(C#N)c(-c1ccc(S(=O)(=O)NC3(C(F)(F)F)CC3)cn1)n2C1CCC1 [compound 642, 6-(3-cyano-1-cyclobutyl-6-ethyl-5-fluoro-1H-indol-2-yl)-N-[1-(trifluoromethyl)cyclopropyl]pyridine-3-sulfonamide] | > 6.30 | 203 to 203.5 °C
25 | Cc1cc2cc(-c3ccc(S(=O)(=O)N[C@@H](C)C(F)(F)F)cn3)n(C3CCC3)c2cc1OC(F)F [compound 646, 6-[1-cyclobutyl-6-(difluoromethoxy)-5-methyl-1H-indol-2-yl]-N-[(2S)-1,1,1-trifluoropropan-2-yl]pyridine-3-sulfonamide] | 5.30 to 5.70 | 151 to 153 °C
26 | N#Cc1c(-c2ncc(S(=O)(=O)NC(CF)CF)cn2)n(-c2ccc(F)cc2)c2cc(OC(F)F)ccc12 [compound 477, 2-[3-cyano-6-(difluoromethoxy)-1-(4-fluorophenyl)-1H-indol-2-yl]-N-(1,3-difluoropropan-2-yl)pyrimidine-5-sulfonamide] | > 6.30 | 213 to 216 °C
27 | N#Cc1c(-c2ccc(S(=O)(=O)NC(CF)CF)cn2)n(C2CCCC2)c2cc(C3CC3)ccc12 [compound 85, 6-(3-cyano-1-cyclopentyl-6-cyclopropyl-1H-indol-2-yl)-N-(1,3-difluoropropan-2-yl)pyridine-3-sulfonamide] | > 6.30 | 194 to 200 °C
28 | C[C@H](NS(=O)(=O)c1ccc(-c2c(C#N)c3cc(CC(F)F)ccc3n2C2CCC2)nc1)C(F)(F)F [compound 702, 6-[3-cyano-1-cyclobutyl-5-(2,2-difluoroethyl)-1H-indol-2-yl]-N-[(2S)-1,1,1-trifluoropropan-2-yl]pyridine-3-sulfonamide] | > 6.30 | 143 to 147 °C
